# Experiments:
# Assay type in all cases: cell-based
# [1] = system: Wnt activity (Sp5-Luc reporter, TCF/LEF binding sites) in SW480 colon carcinoma cells; assay: Screening assay for Wnt activity: Sp5-Luc reporter gene assay in stably transduced SW480 cells; conditions: Homo sapiens, overnight incubation
# Source text: The screening assay for Wnt activity is described as follows. Reporter cell lines can be generated by stably transducing cancer cell lines (e.g., colon cancer) or primary cells (e.g., IEC-6 intestinal cells) with a lentiviral construct that includes a Wnt-responsive promoter driving expression of the firefly luciferase gene.
# SW480 colon carcinoma cells were transduced with a lentiviral vector expressing luciferase with a human Sp5 promoter consisting of a sequence of eight TCF/LEF binding sites. SW480 cells stably expressing the Sp5-Luc reporter gene and a hygromycin resistance gene were selected by treatment with 150 μg/mL of hygromycin for 7 days. These stably transduced SW480 cells were expanded in cell culture and used for all further screening activities. Each compound was dissolved in DMSO as a 10 mM stock and used to prepare compound source plates. Serial dilution (1:3, 10-point dose-response curves starting from 10 μM) and compound transfer was performed using the ECHO 550 (Labcyte, Sunnyvale, Calif.) into 384-well white solid bottom assay plates (Greiner Bio-One) with appropriate DMSO backfill for a final DMSO concentration of 0.1%. For Sp5-Luc reporter gene assays, the cells were plated at 4,000 cells/well in 384-well plates with medium containing 1% fetal bovine serum and incubated overnight at 37° C. and 5% CO2. Following incubation, 20 μl of BrightGlo luminescence reagent (Promega) was added to each well of the 384-well assay plates. The plates were placed on an orbital shaker for 2 min and then luminescence was quantified using the Envision (Perkin Elmer) plate reader. Readings were normalized to DMSO only treated cells, and normalized activities were utilized for EC50 calculations using the dose-response log (inhibitor) vs. response-variable slope (four parameters) nonlinear regression feature available in GraphPad Prism 5.0 (or Dotmatics). For EC50 of >10 μM, the percent inhibition at 10 μM is provided.
# [2] = system: SW480 colon cancer cells; assay: Cell viability assay (CellTiter-Blue) in SW480 colon cancer cells; conditions: Homo sapiens, 96 h, four days, CellTiter-Blue
# Description: Representative compounds were screened using the following assay procedure to assess the effect on cell viability as described below.
# Each compound was dissolved in DMSO as a 10 mM stock and used to prepare compound source plates. Serial dilution (1:3, 8-point dose-response curves from 10 μM to 0.0045 μM) and compound transfer was performed using the ECHO 550 (Labcyte, Sunnyvale, Calif.) into 96-well clear bottom, black-walled plates (Corning-Costar).
# Approximately 2×10^3 SW480 colon cancer cells were seeded into each well and allowed to incubate in the presence or absence of compound for four days at 37° C./5% CO2. Eight replicates of DMSO-treated cells served as controls and cells treated with compound were performed in duplicate.
# After incubation, 20 μL of CellTiter-Blue (Promega) was added to each well allowed to incubate for approximately 3 hours. This reagent was a buffered solution which contains resazurin, metabolically active cells were able to reduce rezarurin (blue) into resorufin (pink) which was highly fluorescent. This measured fluorescence was used as a readout for cell viability.
# After incubation, the plates were read at Ex 560 nm Em 590 nm (Cytation 3, BioTek). Dose-response curves were generated and EC50 concentration values were calculated using non-linear regression curve fit in the GraphPad Prism (San Diego, Calif.) or Dotmatics' Studies Software (Bishops Stortford, UK). For EC50 of >10 μM, the percent inhibition at 10 μM is provided.
# [3] = system: primary human fibroblasts derived from IPF patients (LL29 cells) treated with TGF-β1; α-smooth muscle actin (αSMA); assay: Inhibition of the fibrotic process: αSMA staining in TGF-β1 treated primary human fibroblasts from IPF patients (LL29 cells); conditions: Fibroblast, 96 h, TGF-β1 20 ng/mL, 4 days, % cells positive for αSMA
# Source text: Representative compounds were screened using primary human fibroblasts (derived from IPF patients) treated with TGF-β1 to determine their ability to inhibit the fibrotic process.
# Primary human fibroblasts derived from IPF patients (LL29 cells) [^1Xiaoqiu Liu, et. al., “Fibrotic Lung Fibroblasts Show Blunted Inhibition by cAMP Due to Deficient cAMP Response Element-Binding Protein Phosphorylation”, Journal of Pharmacology and Experimental Therapeutics (2005), 315(2), 678-687; ^2Watts, K. L., et. al., “RhoA signaling modulates cyclin D1 expression in human lung fibroblasts; implications for idiopathic pulmonary fibrosis”, Respiratory Research (2006), 7(1), 88] were obtained from American Type Culture Collection (ATCC) and expanded in F12 medium supplemented with 15% Fetal Bovine Serum and Penicillin/Streptomycin.
# Each compound was dissolved in DMSO as a 10 mM stock and used to prepare compound source plates. Serial dilution (1:2, 11-point dose-response curves from 10 μM to 1.87 nM) and compound transfer was performed using the ECHO 550 (Labcyte, Sunnyvale, Calif.) into 384-well clear bottom assay plates (Greiner Bio-One) with appropriate DMSO backfill for a final DMSO concentration of 0.1%. LL29 cells are plated at 1,500 cells/well in 80 μL/well F12 medium supplemented with 1% Fetal Bovine Serum. One hour after addition of the cells, TGF-β1 (Peprotech; 20 ng/mL) was added to the plates to induce fibrosis (ref. 1 and 2 above). Wells treated with TGF-β1 and containing DMSO were used as controls. Cells were incubated at 37° C. and 5% CO2 for 4 days. Following incubation for 4 days, SYTOX green nucleic acid stain (Life Technologies [Thermo Fisher Scientific]) was added to the wells at a final concentration of 1 μM and incubated at room temperature for 30 min. Cells were then fixed using 4% formaldehyde (Electron Microscopy Sciences), washed 3 times with PBS followed by blocking and permeabilization using 3% Bovine Serum Albumin (BSA; Sigma) and 0.3% Triton X-100 (Sigma) in PBS. Cells were then stained with antibody specific to α-smooth muscle actin (αSMA; Abcam) (ref. 1 and 2 above) in 3% Bovine Serum Albumin (BSA; Sigma) and 0.3% Triton X-100 (Sigma) in PBS, and incubated overnight at 4° C. Cells were then washed 3 times with PBS, followed by incubation with Alexa Flor-647 conjugated secondary antibody (Life Technologies [Thermo Fisher Scientific]) and DAPI at room temperature for 1 hour. Cells were then washed 3 times with PBS and plates were sealed for imaging. αSMA staining was imaged by excitation at 630 nm and emission at 665 nm and quantified using the Compartmental Analysis program on the CellInsight CX5 (Thermo Scientific). Dead or apoptotic cells were excluded from analysis based on positive SYTOX green staining. % of total cells positive for αSMA were counted in each well and normalized to the average of 11 wells treated with TGF-β1 on the same plate using Dotmatics' Studies Software. The normalized averages (fold change over untreated) of 3 replicate wells for each compound concentration were used to create dose-responses curves and EC50 values were calculated using non-linear regression curve fit in the Dotmatics' Studies Software. For EC50 of >10 μM, the percent inhibition at 10 μM is provided.
# [4] = system: IL-6 (THP-1 cells); assay: Inhibition of IL-6 in LPS-stimulated THP-1 human monocyte cells (HTRF); conditions: inhibition of IL-6 in LPS-stimulated THP-1 cells, HTRF, 10-point dose-response starting from 10 μM
# Description: Human monocyte cell line (THP-1 cells; Catalog # TIB-202, ATCC, Manassas, Va.) were cultured in Roswell Park Memorial Institute (RPMI) 1640 Medium (Catalog #21870-100, Buffalo, N.Y.) with 1% L-glutamine, 1% HEPES, 1% Sodium Pyruvate, 2% Sodium Bicarbonate supplemented with 100 units/mL penicillin, 50 μg/mL streptomycin, 2-mercaptoethanol (0.05 mM) [basal medium] and 10% fetal bovine serum (Catalog #16140089, Life Technologies, Carlsbad, Calif.) at 37° C. and 5% CO2.
# THP-1 cells were cultured in basal media with 1% FBS for 24 hours before the start of the assay. Each compound was dissolved in DMSO as a 10 mM stock and used to prepare compound source plates. Serial dilution (1:3, 10-point dose-response curves starting from 10 μM) and compound transfer was performed using the ECHO 550 (Labcyte, Sunnyvale, Calif.) into 384-well white low volume assay plates (Greiner Bio-One) with appropriate DMSO backfill for a final DMSO concentration of 0.1%. THP-1 cells were plated at 5000 cells/well in the 384-well plates and incubated at 37° C. for 2 h. 500 ng/mL of LPS was added after 2 hours and cells were incubated for another 22 hours at 37° C. Plates were spun in a centrifuge for 1 minute at […] and a mixture of anti-IL6 XL665, and anti-IL6 Cryptate diluted in reconstitution buffer (Cisbio Inc.) was added to each well. Following incubation for 3 hrs at room temperature, Homogeneous Time-Resolved Fluorescence (HTRF) was measured using the Envision (Perkin Elmer) at 665 nm and […]. The ratio of fluorescence at 665 nm to 620 nm was used as a readout for IL6 quantification. All samples were processed in duplicate. Readings were normalized to DMSO treated cells and normalized activities were utilized for EC50 calculations using the dose-response log (inhibitor) vs. response-variable slope (four parameters) nonlinear regression feature available in GraphPad Prism 5.0 (or Dotmatics). For EC50 of >10 μM, the percent inhibition at 10 μM is provided.
Compound,EC50 [1] [nM],EC50 [2] [µM],EC50 [3] [nM],EC50 [4] [nM]
"CCC(=O)Nc1cncc(-c2cc3c(-c4cc5c(-c6cccc(F)c6)cccc5[nH]4)n[nH]c3cn2)c1 [Compound 1, N-(5-(3-(4-(3-Fluorophenyl)-1H-indol-2-yl)-1H-pyrazolo[3,4-c]pyridin-5-yl)pyridin-3-yl)propionamide]",570,4.07,529,2920
"CN(C)Cc1cncc(-c2cc3c(-c4cc5c(-c6cccc(F)c6)cccc5[nH]4)n[nH]c3cn2)c1 [Compound 13, 1-(5-(3-(4-(3-Fluorophenyl)-1H-indol-2-yl)-1H-pyrazolo[3,4-c]pyridin-5-yl)pyridin-3-yl)-N,N-dimethylmethanamine]",1350,4.93,2200,7520
"CC(C)(C)CC(=O)Nc1cncc(-c2cc3c(-c4cc5c(-c6cccc(F)c6)cccc5[nH]4)n[nH]c3cn2)c1 [Compound 16, N-(5-(3-(4-(3-Fluorophenyl)-1H-indol-2-yl)-1H-pyrazolo[3,4-c]pyridin-5-yl)pyridin-3-yl)-3,3-dimethylbutanamide]",1970,3.92,640,1870
"Fc1cccc(-c2cccc3[nH]c(-c4n[nH]c5cnc(-c6cncc(CN7CCC(F)(F)C7)c6)cc45)cc23)c1 [Compound 26, 5-(5-((3,3-Difluoropyrrolidin-1-yl)methyl)pyridin-3-yl)-3-(4-(3-fluorophenyl)-1H-indol-2-yl)-1H-pyrazolo[3,4-c]pyridine]",1030,3.95,92,3090
"Fc1cccc(-c2cccc3[nH]c(-c4n[nH]c5cnc(-c6ccccn6)cc45)cc23)c1 [Compound 28, 3-(4-(3-Fluorophenyl)-1H-indol-2-yl)-5-(pyridin-2-yl)-1H-pyrazolo[3,4-c]pyridine]",2240,3.53,1180,3600
"CC(C)(C)C(=O)Nc1cncc(-c2cc3c(-c4cc5c(-c6ccc(F)cc6)cccc5[nH]4)n[nH]c3cn2)c1 [Compound 36, N-(5-(3-(4-(4-Fluorophenyl)-1H-indol-2-yl)-1H-pyrazolo[3,4-c]pyridin-5-yl)pyridin-3-yl)pivalamide]",872,5.96,1010,1630
"Fc1ccccc1-c1cccc2[nH]c(-c3n[nH]c4cnc(-c5cccnc5)cc34)cc12 [Compound 60, 3-(4-(2-Fluorophenyl)-1H-indol-2-yl)-5-(pyridin-3-yl)-1H-pyrazolo[3,4-c]pyridine]",740,0.909,90,2570
"CC(C)Nc1cncc(-c2cc3c(-c4cc5c(-c6ccccc6F)cccc5[nH]4)n[nH]c3cn2)c1 [Compound 68, 5-(3-(4-(2-Fluorophenyl)-1H-indol-2-yl)-1H-pyrazolo[3,4-c]pyridin-5-yl)-N-isopropylpyridin-3-amine]",494,1.61,215,3100
"CC(C)(C)CC(=O)Nc1cncc(-c2cc3c(-c4cc5c(-c6ccccc6F)cccc5[nH]4)n[nH]c3cn2)c1 [Compound 72, N-(5-(3-(4-(2-Fluorophenyl)-1H-indol-2-yl)-1H-pyrazolo[3,4-c]pyridin-5-yl)pyridin-3-yl)-3,3-dimethylbutanamide]",1700,4.43,701,3210
"FC1(F)CCN(Cc2cncc(-c3cc4c(-c5cc6c(-c7cccnc7)cccc6[nH]5)n[nH]c4cn3)c2)C1 [Compound 110, 5-(5-((3,3-Difluoropyrrolidin-1-yl)methyl)pyridin-3-yl)-3-(4-(pyridin-3-yl)-1H-indol-2-yl)-1H-pyrazolo[3,4-c]pyridine]",137,1.07,81,422
"CC(C)CC(=O)Nc1cncc(-c2cc3c(-c4cc5c(-c6ccncc6)cccc5[nH]4)n[nH]c3cn2)c1 [Compound 114, 3-Methyl-N-(5-(3-(4-(pyridin-4-yl)-1H-indol-2-yl)-1H-pyrazolo[3,4-c]pyridin-5-yl)pyridin-3-yl)butanamide]",469,6.98,33,1080
